Laboratory results as given in ChEMBL document CHEMBL3112480, “γ-Alkylidene-γ-lactones and isobutylpyrrol-2(5H)-ones analogues to rubrolides as inhibitors of biofilm formation by gram-positive and gram-negative bacteria” (Bioorg Med Chem Lett, 2014).
≈ marks a conversion by molar mass, not a printed value.

How the values were obtained:
Streptococcus mutans [1] = assay: Antibacterial activity against Streptococcus mutans ATCC 25175 assessed as effect on planktonic growth at 0.17 ug/ml after 20 hrs relative to control; format: functional
Pseudomonas aeruginosa [2] = assay: Antibacterial activity against Pseudomonas aeruginosa ATCC 27853 assessed as effect on planktonic growth at 2.73 ug/ml after 20 hrs relative to control; format: functional
Staphylococcus aureus [3] = assay: Antibacterial activity against Staphylococcus aureus ATCC 25923 assessed as effect on planktonic growth at 1.37 ug/ml after 20 hrs relative to control; format: functional
Pseudomonas aeruginosa [4] = assay: Antibacterial activity against Pseudomonas aeruginosa ATCC 27853 assessed as effect on planktonic growth at 0.68 ug/ml after 20 hrs relative to control; format: functional
[5] = tested on: Staphylococcus epidermidis; assay: Antibacterial activity against Staphylococcus epidermidis ATCC 35547 assessed as effect on planktonic growth at 87.5 ug/ml after 20 hrs relative to control; format: functional
[6] = tested on: Staphylococcus epidermidis; assay: Antibacterial activity against Staphylococcus epidermidis ATCC 35547 assessed as effect on planktonic growth at 0.68 ug/ml after 20 hrs relative to control; format: functional
Pseudomonas aeruginosa [7] = assay: Antibacterial activity against Pseudomonas aeruginosa ATCC 27853 assessed as inhibition of biofilm formation after 20 hrs by crystal-violet staining method; format: functional, organism-based
Pseudomonas aeruginosa [8] = assay: Antibacterial activity against Pseudomonas aeruginosa ATCC 27853 assessed as effect on planktonic growth at 87.5 ug/ml after 20 hrs relative to control; format: functional
[9] = tested on: Staphylococcus epidermidis; assay: Antibacterial activity against Staphylococcus epidermidis ATCC 35547 assessed as effect on planktonic growth at 5.5 ug/ml after 20 hrs relative to control; format: functional
Pseudomonas aeruginosa [10] = assay: Antibacterial activity against Pseudomonas aeruginosa ATCC 27853 assessed as effect on planktonic growth at 1.37 ug/ml after 20 hrs relative to control; format: functional
[11] = tested on: Staphylococcus epidermidis; assay: Antibacterial activity against Staphylococcus epidermidis ATCC 35547 assessed as effect on planktonic growth at 2.73 ug/ml after 20 hrs relative to control; format: functional
Staphylococcus aureus [12] = assay: Antibacterial activity against Staphylococcus aureus ATCC 25923 assessed as effect on planktonic growth at 5.5 ug/ml after 20 hrs relative to control; format: functional
[13] = tested on: Staphylococcus epidermidis; assay: Antibacterial activity against Staphylococcus epidermidis ATCC 35547 assessed as effect on planktonic growth at 1.37 ug/ml after 20 hrs relative to control; format: functional
Pseudomonas aeruginosa [14] = assay: Antibacterial activity against Pseudomonas aeruginosa ATCC 27853 assessed as effect on planktonic growth at 21.9 ug/ml after 20 hrs relative to control; format: functional
Streptococcus mutans [15] = assay: Antibacterial activity against Streptococcus mutans ATCC 25175 assessed as effect on planktonic growth at 10.9 ug/ml after 20 hrs relative to control; format: functional
Staphylococcus aureus [16] = assay: Antibacterial activity against Staphylococcus aureus ATCC 25923 assessed as effect on planktonic growth at 2.73 ug/ml after 20 hrs relative to control; format: functional
Staphylococcus aureus [17] = assay: Antibacterial activity against Staphylococcus aureus ATCC 25923 assessed as effect on planktonic growth at 21.9 ug/ml after 20 hrs relative to control; format: functional
Staphylococcus aureus [18] = assay: Antibacterial activity against Staphylococcus aureus ATCC 25923 assessed as effect on planktonic growth at 87.5 ug/ml after 20 hrs relative to control; format: functional
Pseudomonas aeruginosa [19] = assay: Antibacterial activity against Pseudomonas aeruginosa ATCC 27853 assessed as effect on planktonic growth at 10.9 ug/ml after 20 hrs relative to control; format: functional
[20] = tested on: Staphylococcus epidermidis; assay: Antibacterial activity against Staphylococcus epidermidis ATCC 35547 assessed as effect on planktonic growth at 21.9 ug/ml after 20 hrs relative to control; format: functional
[21] = tested on: Staphylococcus epidermidis; assay: Antibacterial activity against Staphylococcus epidermidis ATCC 35547 assessed as effect on planktonic growth at 0.34 ug/ml after 20 hrs relative to control; format: functional
Staphylococcus aureus [22] = assay: Antibacterial activity against Staphylococcus aureus ATCC 25923 assessed as effect on planktonic growth at 0.34 ug/ml after 20 hrs relative to control; format: functional
Staphylococcus aureus [23] = assay: Antibacterial activity against Staphylococcus aureus ATCC 25923 assessed as effect on planktonic growth at 0.17 ug/ml after 20 hrs relative to control; format: functional
Streptococcus mutans [24] = assay: Antibacterial activity against Streptococcus mutans ATCC 25175 assessed as effect on planktonic growth at 21.9 ug/ml after 20 hrs relative to control; format: functional
Streptococcus mutans [25] = assay: Antibacterial activity against Streptococcus mutans ATCC 25175 assessed as inhibition of biofilm formation at 44 ug/ml after 20 hrs by crystal-violet staining method relative to control; format: functional; conditions: ATCC 25175, 20 h
Staphylococcus aureus [26] = assay: Antibacterial activity against Staphylococcus aureus ATCC 25923 assessed as effect on planktonic growth at 10.9 ug/ml after 20 hrs relative to control; format: functional
[27] = tested on: Staphylococcus epidermidis; assay: Antibacterial activity against Staphylococcus epidermidis ATCC 35547 assessed as effect on planktonic growth at 0.17 ug/ml after 20 hrs relative to control; format: functional
Streptococcus mutans [28] = assay: Antibacterial activity against Streptococcus mutans ATCC 25175 assessed as effect on planktonic growth at 0.34 ug/ml after 20 hrs relative to control; format: functional
Streptococcus mutans [29] = assay: Antibacterial activity against Streptococcus mutans ATCC 25175 assessed as effect on planktonic growth at 87.5 ug/ml after 20 hrs relative to control; format: functional
Streptococcus mutans [30] = assay: Antibacterial activity against Streptococcus mutans ATCC 25175 assessed as effect on planktonic growth at 43.8 ug/ml after 20 hrs relative to control; format: functional
Streptococcus mutans [31] = assay: Antibacterial activity against Streptococcus mutans ATCC 25175 assessed as effect on planktonic growth at 0.68 ug/ml after 20 hrs relative to control; format: functional
[32] = tested on: Staphylococcus epidermidis; assay: Antibacterial activity against Staphylococcus epidermidis ATCC 35547 assessed as inhibition of biofilm formation after 20 hrs by crystal-violet staining method; format: functional, organism-based
Staphylococcus aureus [33] = assay: Antibacterial activity against Staphylococcus aureus ATCC 25923 assessed as effect on planktonic growth at 0.68 ug/ml after 20 hrs relative to control; format: functional
[34] = tested on: Staphylococcus epidermidis; assay: Antibacterial activity against Staphylococcus epidermidis ATCC 35547 assessed as effect on planktonic growth at 43.8 ug/ml after 20 hrs relative to control; format: functional
Streptococcus mutans [35] = assay: Antibacterial activity against Streptococcus mutans ATCC 25175 assessed as effect on planktonic growth at 1.37 ug/ml after 20 hrs relative to control; format: functional
[36] = tested on: Staphylococcus epidermidis; assay: Antibacterial activity against Staphylococcus epidermidis ATCC 35547 assessed as effect on planktonic growth at 10.9 ug/ml after 20 hrs relative to control; format: functional
Pseudomonas aeruginosa [37] = assay: Antibacterial activity against Pseudomonas aeruginosa ATCC 27853 assessed as effect on planktonic growth at 0.34 ug/ml after 20 hrs relative to control; format: functional
Streptococcus mutans [38] = assay: Antibacterial activity against Streptococcus mutans ATCC 25175 assessed as effect on planktonic growth at 2.73 ug/ml after 20 hrs relative to control; format: functional
Pseudomonas aeruginosa [39] = assay: Antibacterial activity against Pseudomonas aeruginosa ATCC 27853 assessed as effect on planktonic growth at 5.5 ug/ml after 20 hrs relative to control; format: functional
Pseudomonas aeruginosa [40] = assay: Antibacterial activity against Pseudomonas aeruginosa ATCC 27853 assessed as effect on planktonic growth at 43.8 ug/ml after 20 hrs relative to control; format: functional
Staphylococcus aureus [41] = assay: Antibacterial activity against Staphylococcus aureus ATCC 25923 assessed as effect on planktonic growth at 43.8 ug/ml after 20 hrs relative to control; format: functional
Streptococcus mutans [42] = assay: Antibacterial activity against Streptococcus mutans ATCC 25175 assessed as effect on planktonic growth at 5.5 ug/ml after 20 hrs relative to control; format: functional
Pseudomonas aeruginosa [43] = assay: Antibacterial activity against Pseudomonas aeruginosa ATCC 27853 assessed as effect on planktonic growth at 0.17 ug/ml after 20 hrs relative to control; format: functional

COc1ccc(C)cc1C1=C(Br)C(=O)N(CC(C)C)/C1=C/c1cccc(Cl)c1
Activity (Streptococcus mutans [1]): -1.7%
Activity (Pseudomonas aeruginosa [2]): 0.3%
Activity (Staphylococcus aureus [3]): 12.5%
Activity (Pseudomonas aeruginosa [4]): -1.3%
Activity [5]: 39.2%
Activity [6]: 6.3%
inhibition (Pseudomonas aeruginosa [7]): Dose-dependent effect
IC50 (Pseudomonas aeruginosa [7]; ATCC 27853, 20 h): 2.4 µg/mL (≈ 5.21 µM)
Activity (Pseudomonas aeruginosa [8]): 29.8%
Activity [9]: 8.4%
Activity (Pseudomonas aeruginosa [10]): -0.9%
Activity [11]: 18.1%
Activity (Staphylococcus aureus [12]): 4.6%
Activity [13]: 4.2%
Activity (Pseudomonas aeruginosa [14]): 7.8%
Activity (Streptococcus mutans [15]): -12.4%
Activity (Staphylococcus aureus [16]): 9.2%
Activity (Staphylococcus aureus [17]): 0.6%
Activity (Staphylococcus aureus [18]): -3.2%
Activity (Pseudomonas aeruginosa [19]): 1.8%
Activity [20]: 16.6%
Activity [21]: 16.2%
Activity (Staphylococcus aureus [22]): 2.9%
Activity (Staphylococcus aureus [23]): 4.1%
Activity (Streptococcus mutans [24]): -22.7%
inhibition at 44 µg/mL (Streptococcus mutans [25]): 31.7%
Activity (Staphylococcus aureus [26]): 0%
Activity [27]: 13.9%
Activity (Streptococcus mutans [28]): -2.3%
Activity (Streptococcus mutans [29]): -32.5%
Activity (Streptococcus mutans [30]): -28.3%
Activity (Streptococcus mutans [31]): -2.3%
inhibition [32]: Dose-dependent effect
IC50 ([32]; ATCC 35547, 20 h): 81.4 µg/mL (≈ 177 µM)
Activity (Staphylococcus aureus [33]): 5.8%
Activity [34]: 33.5%
Activity (Streptococcus mutans [35]): -4.9%
Activity [36]: 14.3%
Activity (Pseudomonas aeruginosa [37]): -2.2%
Activity (Streptococcus mutans [38]): -6.8%
Activity (Pseudomonas aeruginosa [39]): 1.5%
Activity (Pseudomonas aeruginosa [40]): 10.5%
Activity (Staphylococcus aureus [41]): 1.8%
Activity (Streptococcus mutans [42]): -6.4%
Activity (Pseudomonas aeruginosa [43]): -2.3%
